Measured values: patent US20130022649A1, “SNALP FORMULATIONS CONTAINING ANTIOXIDANTS” (Protiva Biotherapeutics, Inc., priority 2009, published 2013)

Test: Lipid content and purity by reverse phase HPLC (Example 3 Study 3)
Assay type: physicochemical
Conditions: in 20 mM citrate 1:57 SNALP formulation
Method: Samples were removed after 2 weeks of storage at room temperature (RT) or 40° C. (accelerated conditions). Samples were analyzed for particle size, encapsulation efficiency, lipid content and purity, and siRNA content and purity. Particle size measurements were obtained using a Malvern Zetasizer instrument and encapsulation efficiency was determined using a RiboGreen fluorometric assay. Lipid content and purity were analyzed by reverse phase HPLC. siRNA content and purity were analyzed by denaturing anion-exchange HPLC (DENAX).
Reverse phase HPLC analysis was performed to assess the level of lipid degradation. The results are shown Tables 23-25. […] The formulations containing EDTA or EDTA combined with additional antioxidants had no significant change in lipid content at either storage temperature. The same trends in lipid stability were observed regardless of which cationic lipid was present in the formulation.

CCCCC/C=C\C/C=C\CCCCCCCCC(CCCCCCCC/C=C\C/C=C\CCCCC)OCCCCN(C)C [MC4 Ether, 4-((6Z,9Z,28Z,31Z)-heptatriaconta-6,9,28,31-tetraen-19-yloxy)-N,N-dimethylbutan-1-amine]
cationic lipid content before the drop: about 58 mol %
cationic lipid content after storage (2 weeks at 40° C.): about 52 mol %
